Publication PMC12115217, “3,3′-((3-Hydroxyphenyl)azanediyl)dipropionic Acid Derivatives as a Promising Scaffold Against Drug-Resistant Pathogens and Chemotherapy-Resistant Cancer” (Pathogens, 2025)
Values after ≈ are worked out from the molar mass of the structure shown. Counter-ions that a name gives are not always drawn. Like-named read-outs stand apart in the source and are kept apart here.

What was measured:
E. faecalis AR-0671 = test: Broth microdilution MIC, E. faecalis AR-0671; format: cell-based, Enterococcus faecalis; settings: for MIC: Enterococcus faecalis
Excerpt: (§1) The multidrug-resistant S. aureus strain TCH 1516 [USA 300-HOU-MR] was obtained from the American Type Culture Collection (ATCC, Manassas, VA, USA) (Table 1). E. faecalis AR-0671, multidrug-resistant E. coli AR-0001, K. pneumoniae AR-0003, P. aeruginosa AR-1114, and A. baumannii AR-0273 strains were acquired from the Centers for Disease Control and Prevention (CDC) AR isolate bank (Table 1). Prior to the initiation of this study, all microbial strains were stored in commercial cryopreservation systems at a temperature of −80 °C. The strains were cultivated on Columbia sheep blood agar (Becton Dickinson, Franklin Lakes, NJ, USA) or potato dextrose agar (PDA) for Candida (Becton Dickinson, Franklin Lakes, NJ, USA).
(§2) The antimicrobial activity of 3-((3-hydroxyphenyl)amino)propanoic acid derivatives was assessed by using the broth microdilution method, following the guidelines outlined by the Clinical Laboratory Standards Institute (CLSI), with modifications. In brief, the compounds were dissolved in dimethyl sulfoxide (DMSO) to attain a final concentration of 25–30 mg/mL. Vancomycin hydrochloride (MedChem express, Cat. No. HY-17362), cefazolin (MedChem express, Cat. No. HY-B1892), and meropenem (MedChem express, Cat. No. HY-13678) were used as control antimicrobial drugs and were dissolved in DMSO as described before. Dilution series were prepared in deep 96-well microplates to achieve a two-fold concentration range of 0.25, 0.5, 1, 2, 4, 8, 16, 32, and 64 µg/mL, utilizing cation-adjusted Mueller–Hinton broth (CAMHB) as the growth medium. The microplates containing the dilution series were then inoculated with fresh cultures of each tested organism to reach a final concentration of 5 × 10^4 CFU (colony-forming units) of the test organism in media containing 1% DMSO and 1× drug concentration, with a volume of 200 µL per well. Wells that were inoculated with medium containing 1% DMSO served as positive controls. Subsequently, the microplates were incubated at 35 ± 1 °C for 18 ± 2 h. Following the incubation period, the plates were examined by using a manual microplate viewer (Sensititre Manual Viewbox, ThermoFisher Scientific, Waltham, MA, USA). […] All experiments were conducted in duplicate with three technical replicates for each condition.

K. pneumoniae AR-0003 = test: Broth microdilution MIC, K. pneumoniae AR-0003; format: cell-based; settings: Klebsiella pneumoniae, AR0003; KPC-3; CAMHB, 18 ± 2 h; read-out: minimal inhibitory concentration (MIC) K. pneumoniae AR-0003
P. aeruginosa AR-1114 = test: Broth microdilution MIC, P. aeruginosa AR-1114; format: cell-based; settings: Pseudomonas aeruginosa, AR1114; IMP-15; CAMHB, 18 ± 2 h; read-out: minimal inhibitory concentration (MIC) P. aeruginosa AR-1114
A. baumannii AR-0273 = test: Broth microdilution MIC, A. baumannii AR-0273; format: cell-based, Acinetobacter baumannii; settings: Acinetobacter baumannii, AR0273; OXA-23; CAMHB, 18 ± 2 h; read-out: minimal inhibitory concentration (MIC) A. baumannii AR-0273
Excerpt: as §1, §2

S. aureus TCH 1516 = test: Broth microdilution MIC, S. aureus TCH 1516; format: cell-based; settings: Staphylococcus aureus
E. coli AR-0001 = test: Broth microdilution MIC, E. coli AR-0001; format: cell-based; settings: Escherichia coli, AR0001; multidrug-resistant, KPC-3; CAMHB, 18 ± 2 h; read-out: minimal inhibitory concentration (MIC) E. coli AR-0001
FaDu cells = test: MTT cell viability at fixed 100 µM, FaDu cells; format: cell-based; settings: 24 h, described in words (Figure 2)
Procedure: Test compounds 2–25 were dissolved in hybridoma-grade dimethyl sulfoxide (Millipore, Sigma, Burlington, MA, USA) to prepare stock solutions at concentrations of 10–25 mg/mL. […] For in vitro anticancer activity screening, the compounds were thawed at room temperature, protected from light, and the aliquots were diluted in complete cell culture media to achieve a final concentration of 100 µM and used for the in vitro assays. The cytotoxicity assays were performed in triplicate.
FaDu cells were obtained from the American Type Culture Collection (Rockville, MD, USA). HEK293 cells were kindly provided by Dr. Iliev lab at the Jill Roberts Institute for Inflammatory Bowel Disease, Weill Cornel Medicine of Cornel University (New York, NY, USA). All cells were cultivated in Dulbecco’s Modified Eagle Medium/Nutrient Mixture F-12 (DMEM/F-12) (Gibco, Waltham, MA, USA), 10% fetal bovine serum (FBS) (Gibco, Waltham, MA, USA), 100 U/mL penicillin, and 100 μg/mL streptomycin (P/S) (Gibco, Waltham, MA, USA). Culturing conditions were maintained at 37 °C in a humidified atmosphere containing 5% CO2. The culture medium was refreshed every 2–3 days, and cells were passaged upon reaching 70–80% confluence.
The in vitro inhibitory effects of the compounds were assessed by using the MTT assay. Briefly, cells were plated in 96-well plates at a density of 1 × 10⁴ cells per well. After the cells were allowed to adhere overnight at 37 °C in 5% CO₂, they were treated with compounds at a concentration of 100 µM in triplicate. Following a 20 h incubation, the MTT reagent was added, and the cells were further incubated for 4 h. The resulting formazan was solubilized in anhydrous DMSO, and absorbance was measured at 570 nm by using a microplate reader. Cell viability was calculated by using the following formula: ([AE − AB]/[AC − AB]) × 100%, where AE, AC, and AB represent the absorbance values of experimental samples, untreated controls, and blank wells, respectively. Data analysis was performed by using GraphPad Prism or QuickCalcs.

[1] = AR0671, CAMHB, 18 ± 2 h, read-out: minimal inhibitory concentration (MIC) E. faecalis AR-0671
[2] = MRSA / USA300, mecA MRSA isolate, USA300 lineage, CAMHB, 18 ±, read-out: minimal inhibitory concentration (MIC) S. aureus TCH 1516

Row | Compound | MIC (E. faecalis AR-0671; [1]) [µg/mL] | MIC (K. pneumoniae AR-0003) [µg/mL] | MIC (P. aeruginosa AR-1114) [µg/mL] | MIC (A. baumannii AR-0273) [µg/mL] | MIC (S. aureus TCH 1516; [2]) [µg/mL] | MIC (E. coli AR-0001) [µg/mL] | post-treatment viability (MTT assay) (FaDu cells) | minimal inhibitory concentration (MIC) E. faecalis AR-0671 (E. faecalis AR-0671; CAMHB) [µg/mL] | MIC (E. faecalis AR-0671; AR0671, read-out: minimal inhibitory concentration (MIC) E. faecalis AR-0671) [µg/mL] | MIC (S. aureus TCH 1516; MRSA / USA300, read-out: minimal inhibitory concentration (MIC) S. aureus TCH 1516) [µg/mL]
1 | Cc1nnc(SCC2=C(C(=O)O)N3C(=O)[C@@H](NC(=O)Cn4cnnn4)[C@H]3SC2)s1 [Cefazolin, cefazolin, reference compound] | 8 (≈ 17.6 µM) | > 64 | > 64 | > 64 | 32 (≈ 70.4 µM) | > 64 | – | – | – | –
2 | COC(=O)CCN(CCC(=O)OC)c1cccc(O)c1 [Compound 3, Dimethyl 3,3′-((3-hydroxyphenyl)azanediyl)dipropionate] | > 64 | > 64 | > 64 | > 64 | > 64 | 32 (≈ 114 µM) | minimal cytotoxicity | – | – | –
3 | O=C(CCN(CCC(=O)NN=Cc1ccc(F)cc1F)c1cccc(O)c1)NN=Cc1ccc(F)cc1F [Compound 9, 3,3′-((3-Hydroxyphenyl)azanediyl)bis(N′-(2,4-difluorobenzylidene)propanehydrazide)] | > 64 | > 64 | > 64 | > 64 | > 64 | > 64 | – | – | – | –
4 | O=C(CCN(CCC(=O)NN=Cc1ccc(Cl)cc1)c1cccc(O)c1)NN=Cc1ccc(Cl)cc1 [Compound 11, 3,3′-((3-Hydroxyphenyl)azanediyl)bis(N′-(4-chlorobenzylidene)propanehydrazide)] | > 64 | > 64 | > 64 | > 64 | 64 (≈ 122 µM) | > 64 | – | >64 | – | –
5 | CN(C)c1ccc(/C=N/NC(=O)CCN(CCC(=O)N/N=C/c2ccc(N(C)C)cc2)c2cccc(O)c2)cc1 [Compound 12] | > 64 | 64 (≈ 118 µM) | 64 (≈ 118 µM) | 64 (≈ 118 µM) | 64 (≈ 118 µM) | > 64 | enhanced cytotoxic effects | – | – | –
6 | O=C(CCN(CCC(=O)NN=Cc1cccc2ccccc12)c1cccc(O)c1)NN=Cc1cccc2ccccc12 [Compound 14, 3,3′-((3-Hydroxyphenyl)azanediyl)bis(N′-(naphthalen-1-ylmethylene)propanehydrazide)] | 8 (≈ 14.3 µM) | > 64 | > 64 | > 64 | 2 (≈ 3.59 µM) | 64 (≈ 115 µM) | – | – | – | –
7 | O=C(CCN(CCC(=O)N/N=C/c1ccco1)c1cccc(O)c1)N/N=C/c1ccco1 [Compound 15] | > 64 | > 64 | 64 (≈ 146 µM) | 64 (≈ 146 µM) | > 64 | > 64 | enhanced cytotoxic effects | – | – | –
8 | CCC(C)=NNC(=O)CCN(CCC(=O)NN=C(C)CC)c1cccc(O)c1 [Compound 20, 3,3′-((3-Hydroxyphenyl)azanediyl)bis(N′-(butan-2-ylidene)propanehydrazide)] | 32 (≈ 82.2 µM) | > 64 | > 64 | > 64 | 16 (≈ 41.1 µM) | > 64 | – | – | – | –
9 | CC(=NNC(=O)CCN(CCC(=O)NN=C(C)c1ccccc1)c1cccc(O)c1)c1ccccc1 [Compound 21, 3-((3-Hydroxyphenyl)(3-oxo-3-(2-(1-phenylethylidene)hydrazineyl)propyl)amino)-N′-(1-phenylethylidene)propanehydrazide] | 32 (≈ 65.9 µM) | > 64 | > 64 | > 64 | 32 (≈ 65.9 µM) | > 64 | – | – | – | –
10 | C/C(=N\NC(=O)CCN(CCC(=O)N/N=C(\C)c1ccc(S(N)(=O)=O)cc1)c1cccc(O)c1)c1ccc(S(N)(=O)=O)cc1 [Compound 22, 4,4′-(((3,3′-((3-Hydroxyphenyl)azanediyl)bis(propanoyl))bis(hydrazin-2-yl-1-ylidene))bis(ethan-1-yl-1-ylidene))dibenzenesulfonamide] | 32 (≈ 49.7 µM) | > 64 | > 64 | > 64 | 8 (≈ 12.4 µM) | 16 (≈ 24.9 µM) | – | – | – | –
11 | Cc1ccc(C)n1NC(=O)CCN(CCC(=O)Nn1c(C)ccc1C)c1cccc(O)c1 [Compound 23, 3,3′-((3-Hydroxyphenyl)azanediyl)bis(N-(2,5-dimethyl-1H-pyrrol-1-yl)propanamide)] | > 64 | > 64 | > 64 | > 64 | 64 (≈ 146 µM) | > 64 | reduced viability | – | – | –
12 | C[C@@H](O)[C@H]1C(=O)N2C(C(=O)O)=C(S[C@@H]3CN[C@H](C(=O)N(C)C)C3)[C@H](C)[C@H]12 [Meropenem, meropenem, reference compound] | 2 (≈ 5.22 µM) | 64 (≈ 167 µM) | 32 (≈ 83.4 µM) | > 64 | 2 (≈ 5.22 µM) | 8 (≈ 20.9 µM) | – | – | – | –
13 | CN[C@H](CC(C)C)C(=O)N[C@H]1C(=O)N[C@@H](CC(N)=O)C(=O)N[C@H]2C(=O)N[C@H]3C(=O)N[C@H](C(=O)N[C@H](C(=O)O)c4cc(O)cc(O)c4-c4cc3ccc4O)[C@H](O)c3ccc(c(Cl)c3)Oc3cc2cc(c3O[C@@H]2O[C@H](CO)[C@@H](O)[C@H](O)[C@H]2O[C@H]2C[C@](C)(N)[C@H](O)[C@H](C)O2)Oc2ccc(cc2Cl)[C@H]1O [Vancomycin, Vancomycin hydrochloride, reference compound] | – | – | – | – | – | – | – | – | 4 | 2
